Results: the supplement of paper PMC5412046
Structures can show the parent of a compound that is named as a salt.

Legend:
[1] = tested on: SB.mhdgc-1; test: area under the dose-response curve of % viability (trapezoidal, 11 doses) (% viability x log10 concentration); higher = less cytotoxic; settings: SB.mhdgc-1 (hereditary c.1380delA CDH1 gastric cancer)
Outline: (§1)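 Reported here is DMSO-normalised viability, either at the highest concentration or as a trapezoidal area under the curve. Hereditary or sporadic patient-derived gastric cancer cells received compound by pintool at 11 threefold-diluted concentrations and were read with CellTiter-Glo after 48 h.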

[2] = tested on: SB.msgc-1; test: as above; settings: SB.msgc-1 (sporadic gastric cancer)
Outline: as §1

[3] = tested on: SB.mhdgc-1; test: viability at highest tested concentration (MAXR) relative to DMSO; higher = less cytotoxic; settings: SB.mhdgc-1 (hereditary c.1380delA CDH1 gastric cancer)
Outline: as §1

[4] = tested on: SB.msgc-1; test: as above; settings: SB.msgc-1 (sporadic gastric cancer)
Outline: as §1

Row | Compound | area under the dose-response curve [1] | area under the dose-response curve [2] | viability [3] | viability [4]
1 | CC(=O)O.Cc1c(-c2ccc(O)cc2)n(Cc2ccc(OCCN3CCCCCC3)cc2)c2ccc(O)cc12 [Bazedoxifene] (top concentration 46.0829 µM) | 561 | 293 | 85.4% | 61.8%
2 | O=C(/C=C/c1cccc([S+](=O)([O-])Nc2ccccc2)c1)NO [Belinostat] (top concentration 92.1659 µM) | 402 | 360 | 3.07% | 5.22%
3 | Cn1c(CCCC(=O)O)nc2cc(N(CCCl)CCCl)ccc21 [Bendamustine] (top concentration 46.0829 µM) | 542 | 541 | 60.2% | 84.1%
4 | NC(CO)C(=O)NNCc1ccc(O)c(O)c1O (stereo not drawn) [Benserazide] (top concentration 46.0829 µM) | 558 | 520 | 46.8% | 104%
5 | N/C(=N\C(=O)c1nc(Cl)c(N)nc1N)NCc1ccccc1 [Benzamil] (top concentration 46.0829 µM) | 405 | 316 | 3.54% | 2.75%
6 | CCOC(=O)[C@H](CCc1ccccc1)N[C@H]1CCc2ccccc2N(CC(=O)O)C1=O [Benzapril] (top concentration 46.0829 µM) | 459 | 499 | 2.05% | 2.71%
7 | COc1ccc2cc3[n+](cc2c1OC)CCc1cc2c(cc1-3)OCO2 [Berberine] (top concentration 46.0829 µM) | 462 | 476 | 37.7% | 50%
8 | COc1c(O)cc2c(c1O)[C@@H]1O[C@H](CO)[C@@H](O)[C@H](O)[C@H]1OC2=O [Bergenin] (top concentration 46.0829 µM) | 571 | 567 | 88.2% | 115%
9 | C[N+](C)(C)CC(=O)O.[Cl-] [Betaine] (top concentration 46.0829 µM) | 426 | 507 | 46.7% | 74%
10 | CCC(=O)OCC(=O)[C@@]1(OC(=O)CC)[C@@H](C)C[C@H]2[C@@H]3CCC4=CC(=O)C=C[C@]4(C)[C@@]3(F)[C@@H](O)C[C@@]21C [Betamethasone dipropionate] (top concentration 46.0829 µM) | 476 | 537 | 48.5% | 89.9%
11 | CCCCC(=O)O[C@]1(C(=O)CO)[C@H](C)C[C@H]2[C@@H]3CCC4=CC(=O)C=C[C@]4(C)[C@@]3(F)[C@@H](O)C[C@@]21C [Betamethasone valerate] (top concentration 46.0829 µM) | 478 | 543 | 110% | 102%
12 | C[C@H]1CC2C3CCC/4=C/C(=O)/C=C\[C@]4(C)[C@@]3(F)[C@@H](O)C[C@]2(C)[C@@]1(O)C(=O)CO (stereo partly drawn) [Betamethasone] (top concentration 46.0829 µM) | 512 | 571 | 60% | 65.2%
13 | O=C(O)C1=NC(C(=O)O)CC(/C=C/N2c3cc(O)c(OC4OC(CO)C(O)C(O)C4O)cc3CC2C(=O)O)=C1 (stereo not drawn) [Betanin] (top concentration 46.0829 µM) | 628 | 331 | 133% | 78.6%
14 | CC(C)NCC(O)COc1ccc(CCOCC2CC2)cc1 (stereo not drawn) [Betaxolol hydrochloride] (top concentration 46.0829 µM) | 610 | 539 | 129% | 102%
15 | CC(C[N+](C)(C)C)OC(N)=O (stereo not drawn) [Bethanechol chloride] (top concentration 46.0829 µM) | 573 | 563 | 119% | 102%
16 | C=C(C)[C@@H]1CC[C@]2(C(=O)O)CC[C@]3(C)[C@H](CC[C@@H]4[C@@]5(C)CC[C@H](O)C(C)(C)[C@@H]5CC[C@]43C)[C@@H]12 [Betulinic acid] (top concentration 46.0829 µM) | 583 | 474 | 76.1% | 48.8%
17 | C=C(c1ccc(C(=O)O)cc1)c1cc2c(cc1C)C(C)(C)CCC2(C)C [Bexarotene] (top concentration 46.0829 µM) | 513 | 457 | 108% | 68.6%
18 | CC(O)(C[S+](=O)([O-])c1ccc(F)cc1)C(=O)Nc1ccc(C#N)c(C(F)(F)F)c1 (stereo not drawn) [Bicalutamide] (top concentration 46.0829 µM) | 314 | 183 | 2.85% | 0.377%
19 | CC(C)(C)[C@]1(O)C[C@@H]2OC(=O)C[C@@]23C(=O)O[C@@H]2OC(=O)[C@H](O)C213 (stereo partly drawn) [Bilobalide] (top concentration 46.0829 µM) | 577 | 501 | 109% | 80.6%
20 | CCNC(=O)CCC/C=C\C[C@@H]1[C@@H](/C=C/C(O)CCc2ccccc2)[C@@H](O)C[C@@H]1O (stereo partly drawn) [Bimatoprost] (top concentration 46.0829 µM) | 559 | 552 | 62.2% | 95.7%
21 | CC(C)(OCc1nn(Cc2ccccc2)c2ccccc12)C(=O)O [Bindarit] (top concentration 46.0829 µM) | 530 | 310 | 72.5% | 23.8%
22 | COC1=CC=C(C=C1)C/2=C/OC3=C(C(=CC(=C3)O)O)C2=O [Biochanin A] (top concentration 46.0829 µM) | 503 | 575 | 120% | 119%
